# Source: patent publication US6900233B2, “Substituted 3-phenyl-5-alkoxy-3H-(1,3,4)-oxadiazol-2-ones, pharmaceutical composition and method for treating obesity thereof” (Aventis Pharma Deutschland GmbH, priority 2002, dated 2005)
# Target: T1, pancreatic lipase (PL) (Sus scrofa, UniProt P00591)
# T1 construct: Enriched preparation from porcine pancreas; purchased Sigma L-0382; host or cells: porcine pancreas (tissue preparation)
# T1 sequence (P00591 1-450): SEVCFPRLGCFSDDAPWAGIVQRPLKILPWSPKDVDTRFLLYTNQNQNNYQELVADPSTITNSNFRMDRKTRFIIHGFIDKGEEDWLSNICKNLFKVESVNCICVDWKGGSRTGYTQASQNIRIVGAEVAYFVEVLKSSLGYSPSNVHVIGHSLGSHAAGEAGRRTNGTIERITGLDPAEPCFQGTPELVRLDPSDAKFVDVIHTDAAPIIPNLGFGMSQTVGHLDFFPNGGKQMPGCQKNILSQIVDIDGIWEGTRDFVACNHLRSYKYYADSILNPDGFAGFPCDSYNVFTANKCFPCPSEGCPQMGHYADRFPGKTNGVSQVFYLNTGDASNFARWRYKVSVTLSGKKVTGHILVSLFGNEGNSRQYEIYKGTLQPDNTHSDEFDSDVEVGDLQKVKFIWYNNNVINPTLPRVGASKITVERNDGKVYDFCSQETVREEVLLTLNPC
# Test: Pancreatic lipase enzyme assay (release of radiolabeled oleate from tripalmitin/glycerol tri[3H]oleate substrate)
# Assay type: biochemical
# Conditions: enriched preparation from porcine pancreas, 30° C., 30 min, up to 8 concentrations
# Protocol: The effect of the compounds according to the invention of formula 1 was tested using the following enzyme assay system: [lacuna]
# The activity of the compounds was assayed as follows:
# 1. Preparation of the Substrate:
# 80 μL of tripalmitin (85 mM in chloroform) are mixed with 5 μL of glycerol tri[9,10(n)-^3H]oleate (5 mCi/mL in toluene) in a 12 mL polypropylene vessel. Evaporation in a rotary evaporator (50° C.) and addition of 4 mL of 200 mM Tris/HCl (pH 7.6), 0.8% TX-100 are followed by ultrasound treatment of the mixture (Branson B-12 sonifier, output level 4, 3×2 min with 1 min intervals on ice) until a homogeneous milky suspension is produced.
# Lipase buffer: 80 mM Tris/HCl (pH 7.6), 600 mM NaCl, 8 mM CaCl2, 8 mM benzamidine, 2 mM Pefabloc (Roche Biochemicals) (add the inhibitors only on the day of the assay)
# Pancreatic lipase: Enriched preparation from porcine pancreas (Sigma order No. L-0382) dissolved in lipase buffer (100 000 units/500 μL)
# 5 μL of test substance (in 100% DMSO) or DMSO (control) are mixed with 10 μL of substrate and 5 μL of lipase (in this sequence) and incubated at 30° C. (Eppendorf Thermomixer, 350 min^−1) for 30 min. After addition of 325 μL of methanol/chloroform/n-heptane (10/9/7) and 105 μl of 0.1 M K2CO3, 0.1 M H3BO3 (pH 10.5 adjusted with 1 M KOH) and vigorous mixing, the phases are separated by centrifugation (8000 rpm, Eppendorf centrifuge, 4° C.). 140 μL portions of the aqueous supernatant (contains the liberated radiolabeled oleate; 70% recovery) are transferred into 20 mL scintillation vials and mixed with 6 mL of scintillation cocktail (Beckman ReadySafe). After vigorously mixing and incubating at room temperature for 2 h, the radioactivity is measured in a liquid scintillation counter (Beckman, L8008, tritium channel with quench curve, measurement time 20 min).
# Substances are routinely tested in each concentration in three independent incubation mixtures each with duplicate determination after phase separation (SD<0.02). Background values (reaction under the same conditions but without lipase) are subtracted from all values (corresponds predominantly to the content of glycerol trioleate or free oleate in the substrate preparation in the aqueous phase, <5% of the radioactivity employed). The inhibition of the pancreatic lipase enzymatic activity by a test substance is determined by comparison with an uninhibited control reaction (presence of lipase=0% inhibition; absence of lipase 100% inhibition in each case after background correction). The IC50 is calculated from an inhibition plot with up to 8 concentrations of the test substance. The software package GRAPHIT (Elsevier-BIOSOFT) is used for curve fitting and IC50 determination.
row,IC50,Compound
1,600 nM,"CCCCCCCCCCCOc1nn(-c2ccc(OC(F)(F)F)cc2)c(=O)o1 [Example 15, 5-Undecyloxy-3-(4-trifluoromethoxy-phenyl)-3H-(1,3,4)-oxadiazol-2-one]"
2,900 nM,"CCCCCCCCOc1nn(-c2ccccc2)c(=O)o1 [Example 6, 5-Octyloxy-3-phenyl-3H-(1,3,4)-oxadiazol-2-one]"
3,350 nM,"CCCCCCCCOc1nn(-c2ccc(OC(F)(F)F)cc2)c(=O)o1 [Example 3, 5-Octyloxy-3-(4-trifluoromethoxy-phenyl)-3H-(1,3,4)-oxadiazol-2-one]"
4,30 nM,"CCCCCCCCCCCCOc1nn(-c2ccc(OC(F)(F)F)cc2)c(=O)o1 [Example 1, 5-Dodecyloxy-3-(4-trifluoromethoxy-phenyl)-3H-(1,3,4)-oxadiazol-2-one]"
5,2000 nM,"CCCCCCCCCCCCCCCCOc1nn(-c2ccc(Oc3ccc(Cl)cc3)cc2)c(=O)o1 [Example 5, 5-Hexadecyloxy-3-(4-(4-chlorophenoxy)-phenyl)-3H-(1,3,4)-oxadiazol-2-one]"
6,250 nM,"CCCCCCCCCCCCCCCCOc1nn(-c2ccc(OC(F)(F)F)cc2)c(=O)o1 [Example 2, 5-Hexadecyloxy-3-(4-trifluoromethoxy-phenyl)-3H-(1,3,4)-oxadiazol-2-one]"
7,2500 nM,"CCCCCCCCCCCCCCCCOc1nn(-c2cccc(OC(F)(F)F)c2)c(=O)o1 [Example 4, 5-Hexadecyloxy-3-(3-trifluoromethoxy-phenyl)-3H-(1,3,4)-oxadiazol-2-one]"

# System: not given
# Test: not given
# Conditions: not given
row,melting point,Compound
1,50 °C,"CCCCCCCCCCCCCOc1nn(-c2ccc(OC(F)(F)F)cc2)c(=O)o1 [Example 17, 5-Tridecyloxy-3-(4-trifluoromethoxy-phenyl)-3H-(1,3,4)-oxadiazol-2-one]"
2,74 °C,"CCCCCCCCCCCCOc1nn(-c2ccc(Cl)c(Cl)c2)c(=O)o1 [Example 30, 5-(Dodecyloxy)-3-(3,4-dichloro-phenyl)-3H-(1,3,4)-oxadiazol-2-one]"
3,65 °C,"CCCCCCCCCCCCOc1nn(-c2ccc(OCc3ccccc3)cc2)c(=O)o1 [Example 37, 5-(Dodecyloxy)-3-(4-benzyloxy-phenyl)-3H-(1,3,4)-oxadiazol-2-one]"
4,62 °C,"CCCCCCCCCCCCOc1nn(-c2ccc([N+](=O)[O-])c(C)c2)c(=O)o1 [Example 41, 5-(Dodecyloxy)-3-(3-methyl-4-nitro-phenyl)-3H-(1,3,4)-oxadiazol-2-one]"
5,38 °C,"CCCCCCCCCCCOc1nn(-c2ccc(OC(F)(F)F)cc2)c(=O)o1 [Example 15, 5-Undecyloxy-3-(4-trifluoromethoxy-phenyl)-3H-(1,3,4)-oxadiazol-2-one]"
6,57 °C,"CCCCCCCCCCCCOc1nn(-c2ccc(OC)cc2)c(=O)o1 [Example 33, 5-(Dodecyloxy)-3-(4-methoxy-phenyl)-3H-(1,3,4)-oxadiazol-2-one]"
7,66 °C,"CCCCCCCCCCCCCCCCOc1nn(-c2ccc(OC)cc2)c(=O)o1 [Example 12, 5-Hexadecyloxy-3-(4-methoxy-phenyl)-3H-(1,3,4)-oxadiazol-2-one]"
8,64 °C,"CCCCCCCCCCCCOc1nn(-c2cccc([N+](=O)[O-])c2)c(=O)o1 [Example 34, 5-(Dodecyloxy)-3-(3-nitro-phenyl)-3H-(1,3,4)-oxadiazol-2-one]"
9,38 °C,"CCCCCCCCOc1nn(-c2ccccc2)c(=O)o1 [Example 6, 5-Octyloxy-3-phenyl-3H-(1,3,4)-oxadiazol-2-one]"
10,71 °C,"CCCCCCCCCCCCOc1nn(-c2ccc([N+](=O)[O-])c(OCc3ccc(F)cc3)c2)c(=O)o1 [Example 39, 5-(Dodecyloxy)-3-(3-(4-fluorobenzyloxy)-4-nitro-phenyl)-3H-(1,3,4)-oxadiazol-2-one]"
11,58 °C,"CCCCCCCCCCCCCCCCOc1nn(-c2cccc(F)c2)c(=O)o1 [Example 8, 5-Hexadecyloxy-3-(3-fluoro-phenyl)-3H-(1,3,4)-oxadiazol-2-one]"
12,43 °C,"CCCCCCCCCCCCOc1nn(-c2cccc(C(F)(F)F)c2)c(=O)o1 [Example 35, 5-(Dodecyloxy)-3-(3-trifluoromethyl-phenyl)-3H-(1,3,4)-oxadiazol-2-one]"
13,51 °C,"CCCCCCCCCCCCOc1nn(-c2cccc(OC)c2)c(=O)o1 [Example 32, 5-(Dodecyloxy)-3-(3-methoxy-phenyl)-3H-(1,3,4)-oxadiazol-2-one]"
14,60 °C,"O=c1oc(OCCc2ccc(F)cc2)nn1-c1ccc(OC(F)(F)F)cc1 [Example 21, 5-(2-(4-Fluorophenyl)-ethoxy)-3-(4-trifluoromethoxy-phenyl)-3H-(1,3,4)-oxadiazol-2-one]"
15,44 °C,"CCCCCCCCCCCCOc1nn(-c2cccc(F)c2)c(=O)o1 [Example 38, 5-(Dodecyloxy)-3-(3-fluoro-phenyl)-3H-(1,3,4)-oxadiazol-2-one]"
16,41 °C,"CCCCCCCCCCCCOc1nn(-c2ccc(OC(F)(F)F)cc2)c(=O)o1 [Example 29, 5-(Dodecyloxy)-3-(4-trifluoromethoxy-phenyl)-3H-(1,3,4)-oxadiazol-2-one]"
17,63 °C,"CCCCCCCCCCCCCCCCOc1nn(-c2ccccc2)c(=O)o1 [Example 10, 5-Hexadecyloxy-3-phenyl-3H-(1,3,4)-oxadiazol-2-one]"
18,63 °C,"CCCCCCCCCCCCOc1nn(-c2ccc([N+](=O)[O-])cc2C)c(=O)o1 [Example 40, 5-(Dodecyloxy)-3-(2-methyl-4-nitro-phenyl)-3H-(1,3,4)-oxadiazol-2-one]"
19,52 °C,"CCCCCCCCCCCCCCCCOc1nn(-c2ccc(Oc3ccc(Cl)cc3)cc2)c(=O)o1 [Example 5, 5-Hexadecyloxy-3-(4-(4-chlorophenoxy)-phenyl)-3H-(1,3,4)-oxadiazol-2-one]"
20,48 °C,"CCCCCCCCCCCCOc1nn(-c2cc(Cl)cc(Cl)c2)c(=O)o1 [Example 31, 5-(Dodecyloxy)-3-(3,5-dichloro-phenyl)-3H-(1,3,4)-oxadiazol-2-one]"
21,72 °C,"CCCCCCCCCCCCCCCCOc1nn(-c2ccc([N+](=O)[O-])cc2)c(=O)o1 [Example 11, 5-Hexadecyloxy-3-(4-nitro-phenyl)-3H-(1,3,4)-oxadiazol-2-one]"
22,65 °C,"CCCCCCCCCCCCCCCCOc1nn(-c2cccc(OCc3ccccc3)c2)c(=O)o1 [Example 9, 5-Hexadecyloxy-3-(3-benzyloxy-phenyl)-3H-(1,3,4)-oxadiazol-2-one]"
23,127 °C,CC(C)CCC[C@@H](C)[C@H]1CC[C@H]2[C@@H]3CCC4C[C@@H](Oc5nn(-c6ccc(OC(F)(F)F)cc6)c(=O)o5)CC[C@]4(C)[C@H]3CC[C@]12C (some centres unmarked)
24,46 °C,"CCCCCCCCCCCCCCOc1nn(-c2ccc(OC(F)(F)F)cc2)c(=O)o1 [Example 16, 5-Tetradecyloxy-3-(4-trifluoromethoxy-phenyl)-3H-(1,3,4)-oxadiazol-2-one]"
25,71 °C,"CCCCCCCCCCCCCCCCCCCCCCOCCOc1nn(-c2ccc(OC(F)(F)F)cc2)c(=O)o1 [Example 25, 5-(Docosyloxy-ethoxy)-3-(4-trifluoromethoxy-phenyl)-3H-(1,3,4)-oxadiazol-2-one]"
26,56 °C,"CCCCCCCCCCCCCCCCOc1nn(-c2ccc(OC(F)(F)F)cc2)c(=O)o1 [Example 2, 5-Hexadecyloxy-3-(4-trifluoromethoxy-phenyl)-3H-(1,3,4)-oxadiazol-2-one]"
27,53 °C,"CCCCCCCCCCCCCCCCOc1nn(-c2cccc(OC(F)(F)F)c2)c(=O)o1 [Example 4, 5-Hexadecyloxy-3-(3-trifluoromethoxy-phenyl)-3H-(1,3,4)-oxadiazol-2-one]"
28,73 °C,"CCCCCCCCCCCCCCCCOc1nn(-c2ccc(OCc3ccccc3)cc2)c(=O)o1 [Example 13, 5-Hexadecyloxy-3-(4-benzyloxy-phenyl)-3H-(1,3,4)-oxadiazol-2-one]"
